Where two headings read alike, the source gives them in different places.
What was measured:
Experiment in all cases: stopped-flow CO2 hydrase assay
Type in all cases: biochemical
[1] = biological target: T1, hCA I (Homo sapiens, UniProt P00915)
T1 construct: gene CA1; cytosolic isoform
Excerpt: stopped-flow CO2 hydrase assay on hCA I

[2] = biological target: T2, hCA II (Homo sapiens, UniProt P00918)
T2 construct: gene CA2
Excerpt: stopped-flow CO2 hydrase assay on hCA II

[3] = biological target: T3, hCA IX (Homo sapiens, UniProt Q16790)
T3 construct: gene CA9; trans-membrane isoform
Excerpt: stopped-flow CO2 hydrase assay on hCA IX

[4] = biological target: T4, hCA XII (Homo sapiens, UniProt O43570)
T4 construct: gene CA12; trans-membrane isoform
T4 sequence (O43570 30-289 limits assumed): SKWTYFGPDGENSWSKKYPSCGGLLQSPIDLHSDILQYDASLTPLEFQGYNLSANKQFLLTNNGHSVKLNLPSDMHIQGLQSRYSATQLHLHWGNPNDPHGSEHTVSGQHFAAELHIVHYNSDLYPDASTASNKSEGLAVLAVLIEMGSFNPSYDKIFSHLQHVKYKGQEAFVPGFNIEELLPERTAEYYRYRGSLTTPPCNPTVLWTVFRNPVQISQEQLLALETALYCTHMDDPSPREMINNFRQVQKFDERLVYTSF
Excerpt: stopped-flow CO2 hydrase assay on hCA XII

[5] = biological target: T2, hCA II; conditions: read-out: KI (μM)^a / hCA I
[6] = biological target: T4, hCA XII; conditions: read-out: KI (μM)^a / hCA I
[7] = biological target: T3, hCA IX; conditions: read-out: KI (μM)^a / hCA I

T1 sequence (P00915 2-261): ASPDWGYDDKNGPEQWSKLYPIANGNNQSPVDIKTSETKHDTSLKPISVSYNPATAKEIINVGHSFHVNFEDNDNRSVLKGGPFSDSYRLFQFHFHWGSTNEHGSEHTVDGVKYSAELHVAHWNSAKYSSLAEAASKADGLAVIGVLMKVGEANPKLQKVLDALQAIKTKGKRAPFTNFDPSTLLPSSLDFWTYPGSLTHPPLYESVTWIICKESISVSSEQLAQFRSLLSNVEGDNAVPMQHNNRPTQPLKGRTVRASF

Ki [1] | Ki [2] | Ki [3] | Ki [4] | Ki [5] | Ki [6] | Ki [7] | Structure (SMILES)
> 100 µM | 39.4 µM | 10.6 µM | 6.4 µM | – | – | – | O=C(/C=C\Nc1ccccc1C(=O)O)c1ccccc1 [5a]
> 100 µM | 24.3 µM | 13.2 µM | 4.3 µM | – | – | – | O=C(/C=C\Nc1ccccc1C(=O)O)c1ccc(F)cc1 [5b]
> 100 µM | 32.7 µM | 17.7 µM | 12.5 µM | – | – | – | O=C(/C=C\Nc1ccccc1C(=O)O)c1ccc(Cl)cc1 [5c]
> 100 µM | 26.9 µM | 14.1 µM | 7.8 µM | – | – | – | O=C(/C=C\Nc1ccccc1C(=O)O)c1ccc([N+](=O)[O-])cc1 [5d]
> 100 µM | 49 µM | 19.3 µM | 15.7 µM | – | – | – | O=C(/C=C\Nc1ccccc1C(=O)O)c1ccc2ccccc2c1 [5e]
> 100 µM | 72.8 µM | 15.9 µM | 9.5 µM | – | – | – | O=C(O)c1cccc(NC=CC(=O)c2ccccc2)c1 [5f]
> 100 µM | 68.2 µM | 9.6 µM | 10.3 µM | – | – | – | O=C(O)c1cccc(NC=CC(=O)c2ccc(F)cc2)c1 [5g]
> 100 µM | 77.1 µM | 19.2 µM | 8.6 µM | – | – | – | O=C(O)c1cccc(NC=CC(=O)c2ccc(Cl)cc2)c1 [5h]
> 100 µM | 81.4 µM | 32.5 µM | 13.9 µM | – | – | – | O=C(O)c1cccc(NC=CC(=O)c2ccc(Br)cc2)c1 [5i]
> 100 µM | 80.7 µM | 24.7 µM | 8.9 µM | – | – | – | O=C(O)c1cccc(NC=CC(=O)c2ccc([N+](=O)[O-])cc2)c1 [5j]
> 100 µM | 92.3 µM | 11.4 µM | 9.7 µM | – | – | – | O=C(O)c1cccc(NC=CC(=O)c2ccc3ccccc3c2)c1 [5k]
75.3 µM | 9.8 µM | 1.2 µM | 0.97 µM | – | – | – | O=C(O)c1ccc(NC=CC(=O)c2ccccc2)cc1 [5l]
68.8 µM | 8.7 µM | 0.92 µM | 1.1 µM | – | – | – | O=C(O)c1ccc(NC=CC(=O)c2ccc(F)cc2)cc1 [5m]
81.5 µM | 13.5 µM | 3.4 µM | 4.6 µM | – | – | – | O=C(O)c1ccc(NC=CC(=O)c2ccc(Cl)cc2)cc1 [5n]
> 100 µM | 15.3 µM | 5.6 µM | 6.2 µM | – | – | – | O=C(O)c1ccc(NC=CC(=O)c2ccc(Br)cc2)cc1 [5o]
95.6 µM | 12.6 µM | 4.1 µM | 0.85 µM | – | – | – | O=C(O)c1ccc(NC=CC(=O)c2ccc([N+](=O)[O-])cc2)cc1 [5p]
79.4 µM | 7.4 µM | 0.76 µM | 1.5 µM | – | – | – | O=C(O)c1ccc(NC=CC(=O)c2ccc3ccccc3c2)cc1 [5q]
> 100 µM | 64.3 µM | 23.7 µM | 7.4 µM | – | – | – | O=C(O)c1cccc(NCCC(=O)c2ccccc2)c1 [7a, 3/4-((3-oxo-3-phenylpropyl)amino)benzoic acids 7a–b]
63.8 µM | 16.7 µM | 8.3 µM | 9.1 µM | – | – | – | O=C(O)c1ccc(NCCC(=O)c2ccccc2)cc1 [7b, 3/4-((3-oxo-3-phenylpropyl)amino)benzoic acids 7a–b]
> 100 µM | – | – | – | > 100 µM | > 100 µM | > 100 µM | O=C(O)CNC(=O)c1ccc(NC=CC(=O)c2ccccc2)cc1 [12a]
> 100 µM | – | – | – | > 100 µM | > 100 µM | > 100 µM | O=C(O)CNC(=O)c1ccc(N/C=C/C(=O)c2ccc(Br)cc2)cc1 [12b]
> 100 µM | – | – | – | > 100 µM | > 100 µM | > 100 µM | O=C(O)CNC(=O)c1ccc(N/C=C/C(=O)c2ccc3ccccc3c2)cc1 [12c]
